Test results published in patent EP0227593A1, “Use of chelating agents” (THE HOSPITAL FOR SICK CHILDREN, priority 1985, dated 1987).

Legend:
[1] = system: PB leukemia cell colonies; assay: Surface marker analysis of leukemia cell colonies grown with deferoxamine (immunocytochemical assay); type: cell-based, human; design: key to Ia intensity of staining / B4 intensity of staining / OKM1 intensity of staining / MY-4 intensity of staining: strong (+++); moderate (++); weak (+); conditions: colonies from cultures containing 2.5 µM deferoxamine
Procedure: Cell Culture Procedure: 2 x 10⁵ T-depleted cells were incubated with 40 % RPMI-methylcellulose, 20 % PHA-LCM, 10 % FCS, irradiated feeder cells (10⁵/dish), 16.6 % RPMI in 35 mm Petri dishes. The culture dishes were placed into a specialized modular incubator chamber (Billups-Rosenberg, Del Mar, CA) in a humidified atmosphere of 5 % O₂, 5 % CO₂ and balanced nitrogen for 3-6 days. After 2 days of incubation, the culture dishes were carefully examined. Colonies were counted at day 4. A cluster of more than 20 cells was defined as a colony. Individual colonies were plucked from the culture plates and smeared on microscope slides for further evaluation, using Wright stain and non-specific esterase staining. For control, 2 x 10⁵ irradiated feeder cells were cultured in the same assay system in each experiment to exclude their potential for colony formation Immunocytochemical Method: The cell surface antigens of air dried smears were detected using monoclonal antibodies and intestinal alkaline phosphatase, as previously described. This assay was performed to detect surface antigens on patients' PB and BM smears and colonies plucked from cultures. The slides were counter- stained in hematoxylin for light microscopy and the presence of surface antigen was indicated as bright red granular cellular inclusions. Morphologic details were well preserved, and a very high degree of correlation between morphology and surface antigen expression was observed. The intensity of staining was defined as strong (+++), moderate (++) and weak (+). Immunofluorescence Method: The cell surface phenotype was determined by indirect cell-surface fluorescence: A fluorescein-conjugated goat anti-mouse IgG (FAb')₂ was used as second antibody. The labelling was performed at room temperature in the presence of 0.2 % sodium azide. The percentage of cells with surface fluorescence was determined by counting cells stained in three replicate wells using an inverted phase-fluorescent microscope. Monoclonal Antibodies: The following monoclonal antibodies were used in these studies: anti-OKIa (Ortho Diagnostic Systems Inc. Raritan, NJ) to detect HLA-D framework antigen, anti-MY-7, anti-Mol and anti-MY-4 (coulter Immunology) to identify myelomonocytic markers, anti-Ig. anti-BA1, anti-BA2, anti-B1, and anti-B4 (Becton-Dickinson) to recognize cells of the B-cell lineage, anti-J5 (Coulter Immunology) to recognize cells bearing common ALL (CALLA) antigen and anti-Leu-1 and anti-Leu-4 (Coulter Immunology) to recognize cells of the T-cell lineage.
DFO and Blast Cell Differentiation: Individual blast colonies from the culture plates containing DFO 2.5 µM were characterized (Table 2). Compared to colonies grown without exposure to DFO, a marked change in cell surface antigen expression was observed.
PB leukemia cell colonies were plucked at random from cultures containing 2.5 µM deferoxamine compared to cultures without deferoxamine using the immunocytochemical assay.

[2] = system: blasts; assay: Marrow aspirate and cytochemistry at conclusion of the 20-day treatment protocol; type: in vivo, human
From the text: In contrast to the marrow aspirate prior to DFO therapy, 60 % of the blasts were positive for non-specific esterase and staining could be inhibited by fluoride.

[3] = system: L-1210 tumour cells; assay: L-1210 tumour growth in mice; type: in vivo; conditions: day 8
Procedure: One hour prior to kill on day 8 the mice received one ip injection of 0.002 mCi of 3H-thymidine per g body weight. Cells were harvested from the peritoneal cavity, the volume of ascites measured and the cell counts determined in a coulter counter, after lysis of red cells with zap-oglobin, for calculation of total tumour cell numbers. Also, of each sample cell smears were done, Feulgen stained and autoradiographed, whereby the number and percentage of labelled cells was determined and used as a measure for proliferating cells.

[4] = DFO 400 mg/kg/d s.c. minipump from day 2, Ara-C 200 mg/kg once ip on day 6

For `CC(=O)N(O)CCCCCNC(=O)CCC(=O)N(O)CCCCCNC(=O)CCC(=O)N(O)CCCCCN` [DFO, desferioxamine methanesulfonate], the “B4 Positive” value [1] was 30%, the “B4 intensity of staining” value [1] was “+++” and the “CALLA Positive” value [1] was 0%. For the same compound, the “Ia Positive” value [1] was 80%, the “Ia intensity of staining” value [1] was “+++” and the “Leu-1 Positive” value [1] was 0%. The “Leu-4 Positive” value [1] was 0%, the “MY-4 Positive” value [1] was 60% and the “MY-4 intensity of staining” value [1] was “++”. The “OKM1 Positive” value [1] was > 90%, the “OKM1 intensity of staining” value [1] was “+++” and the “blasts in marrow aspirate” value ([2]; conclusion of the 20-day treatment protocol (DFO and Ara-C)) was 60%. For the same compound, the “blasts positive for non-specific esterase” value ([2]; marrow aspirate, conclusion of the 20-day treatment protocol) was 60%, the “proportions of proliferating cells” value ([3]; 3H-thymidine labelled cells, same doses as Table 12) was 28 % ± 8% and the “Number of cells in the peritoneal cavity % of control” value [3, 4] was 95%. The “Number of cells in the peritoneal cavity x̄ ± SD” value [3, 4] was 3.49 ± 1.75 10^8, the “Number of proliferating cells in peritoneal cavity % of control” value [3, 4] was 80% and the “Number of proliferating cells in peritoneal cavity x̄ ± SD” value [3, 4] was 0.98 ± 0.64 10^8.
